Assay results from US11458138B2 (Novartis AG, priority 2017, dated 2022).

Assays:
[1] = target: Human LATS1 kinase domain protein (Homo sapiens (Human), UniProt O95835); assay: LATS1 Biochemical Caliper Assay (Compound Examples 291-335); settings: Caliper EZ Reader
Description: The LATS1 biochemical Caliper assay was performed as following.
Human LATS1 kinase domain protein was purchased from Carnabio (catalogue number 01-123; lot 15CBS-0098D). Human LATS1, catalytic domain [589-1130(end) amino acids of accession number NP_004681.1] was co-expressed as N-terminal GST-fusion protein (90 kDa) with human His-tagged MOBKL1A [1-216(end) amino acids of accession number NP_775739.1] using baculovirus expression system. GST-LATS1 was purified by using glutathione sepharose chromatography. The substrate (Fluo-SGKtide; Peptide for LATS1; lot BS-41067) has the following sequence: 5-Fluo-Nva-[…]-amide (SEQ ID NO: 27) x TFA and was purchased from Biosyntan.
The reaction is performed in reaction buffer containing 50 mM Hepes pH 7,5; 0.02% Tween20; 0.02% BSA; 1 mM DTT; 10 uM Na3VO4 and 10 mM beta-Glycerolphosphat and fresh added 1 mM MgCl2 and qsp H2O.
The substrate solution (2× conc.) in Reaction Buffer contains 300 μM ATP and 4 μM Fluo-SGKtide.
The kinase solution (2× conc.) in Reaction Buffer contains 20 nM LATS1 kinase. 4.5 μL of 2× conc. Kinase solution, 50 nL of 1.8 mM compounds and 4.5 μL of substrate solution were added into 384-well plates black small volume from Greiner and incubated at 32° C. for 1 hour. 15 μL of stop buffer containing 100 mM Hepes pH 7,5; 5% DMSO; 0.1% Coating reagent; 10 mM EDTA and 0.02% Brij35 and qsp H2O to each well to terminate the reaction.
Substrates and products were electrophoretically separated using the microfluidic-based Caliper EZ Reader System (Caliper Life Sciences) using a 12 sipper chip (cat 760404). The separation takes place in Coating Buffer (idem Stop buffer) and containing 0.1% Coating reagent CR3 and 0.5% coating reagent CR8 (Perkin Elmer).
Plates were read using a LED with an excitation at 488 nm and a detection at 520 nm to 5 quantify the fluorescence intensity.

[2] = test system: Phospho-YAP (Ser127) in JHH-5 cells; assay: pYAP HTRF Assay (JHH-5 cells); format: cell-based; settings: 2 hours
Method in brief: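 Phospho-YAP read by HTRF (665 nm/620 nm ×10000) in lysates after overnight 18 h antibody incubation at room temperature. Compound treatment lasted 2 h at 37 °C, on JHH-5 cells plated 24 h earlier at 24000 per well in William's E medium with 10% FBS.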

Chain of Human LATS1 kinase domain protein (O95835 whole entry, looked up, the tested form may be a part): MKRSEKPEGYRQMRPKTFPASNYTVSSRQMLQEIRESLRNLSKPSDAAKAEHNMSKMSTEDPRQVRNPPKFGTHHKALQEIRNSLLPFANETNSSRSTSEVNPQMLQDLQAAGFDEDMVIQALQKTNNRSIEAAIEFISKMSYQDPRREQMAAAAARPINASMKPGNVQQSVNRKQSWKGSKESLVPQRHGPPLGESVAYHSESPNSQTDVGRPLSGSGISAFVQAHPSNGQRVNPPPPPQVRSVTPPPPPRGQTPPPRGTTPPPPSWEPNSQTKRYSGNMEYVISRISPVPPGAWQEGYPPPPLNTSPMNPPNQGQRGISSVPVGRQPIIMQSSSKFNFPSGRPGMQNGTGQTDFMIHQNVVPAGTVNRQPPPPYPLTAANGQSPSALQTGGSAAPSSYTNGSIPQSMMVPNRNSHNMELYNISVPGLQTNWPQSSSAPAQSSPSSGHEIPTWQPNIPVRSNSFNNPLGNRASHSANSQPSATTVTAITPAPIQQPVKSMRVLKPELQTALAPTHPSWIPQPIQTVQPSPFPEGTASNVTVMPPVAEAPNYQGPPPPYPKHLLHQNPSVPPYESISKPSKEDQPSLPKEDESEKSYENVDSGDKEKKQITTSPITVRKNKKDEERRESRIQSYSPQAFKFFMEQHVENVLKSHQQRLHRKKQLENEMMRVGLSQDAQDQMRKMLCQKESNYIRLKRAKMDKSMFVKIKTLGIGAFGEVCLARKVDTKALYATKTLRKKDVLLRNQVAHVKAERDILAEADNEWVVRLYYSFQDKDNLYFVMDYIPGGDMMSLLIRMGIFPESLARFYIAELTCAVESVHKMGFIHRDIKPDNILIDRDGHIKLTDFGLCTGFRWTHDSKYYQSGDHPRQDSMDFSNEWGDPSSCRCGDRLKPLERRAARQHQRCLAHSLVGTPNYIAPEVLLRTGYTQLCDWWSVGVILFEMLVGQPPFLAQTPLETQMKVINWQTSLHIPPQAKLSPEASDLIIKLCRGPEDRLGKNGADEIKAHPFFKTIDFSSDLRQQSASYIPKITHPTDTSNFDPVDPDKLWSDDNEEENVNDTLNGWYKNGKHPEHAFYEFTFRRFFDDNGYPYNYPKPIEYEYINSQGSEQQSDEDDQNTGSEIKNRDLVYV
Chain of Human LATS1 kinase domain protein (Q7L9L4 whole entry partner, looked up, the tested form may be a part): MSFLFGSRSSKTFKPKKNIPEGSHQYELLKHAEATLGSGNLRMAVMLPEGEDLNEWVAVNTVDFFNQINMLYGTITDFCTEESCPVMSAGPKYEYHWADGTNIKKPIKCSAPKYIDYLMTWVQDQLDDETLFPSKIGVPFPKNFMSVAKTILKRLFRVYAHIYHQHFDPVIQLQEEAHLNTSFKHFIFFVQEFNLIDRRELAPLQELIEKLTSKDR

IC50 [1] | IC50 [2] | Compound
457 nM | – | CN1CCN(c2cc(-c3ccncc3)nc3cnccc23)CC1 [Example 291, 4-(4-methylpiperazin-1-yl)-2-(pyridin-4-yl)-1,7-naphthyridine]
43.3 nM | – | c1cc(-c2cc(N3CCNCC3)c3ccncc3n2)ccn1 [Example 292, 4-(piperazin-1-yl)-2-(pyridin-4-yl)-1,7-naphthyridine]
16 nM | – | CC1CCCCN1c1cc(-c2ccncc2)nc2cnccc12 (stereo not shown) [Example 293, 4-(2-methylpiperidin-1-yl)-2-(pyridin-4-yl)-1,7-naphthyridine]
4.5 nM | 1100 nM | FC(F)(F)C1(Nc2cc(-c3ccncc3)nc3cnccc23)CCC1 [Example 294, 2-(pyridin-4-yl)-N-(1-(trifluoromethyl)cyclobutyl)-1,7-naphthyridin-4-amine]
10 nM | > 10000 nM | CC(C)(N)CNc1cc(-c2ccncc2)nc2cnccc12 [Example 295, 2-methyl-N1-(2-(pyridin-4-yl)-1,7-naphthyridin-4-yl)propane-1,2-diamine]
209 nM | – | c1cc(-c2cc(NC3COC3)c3ccncc3n2)ccn1 [Example 296, N-(oxetan-3-yl)-2-(pyridin-4-yl)-1,7-naphthyridin-4-amine]
7.5 nM | > 10000 nM | CC1(Nc2cc(-c3ccncc3)nc3cnccc23)CC1 [Example 297, N-(1-methylcycloropyl)-2-(pyridin-4-yl)-1,7-naphthyridin-4-amine]
59 nM | – | CC1(C)CN(c2cc(-c3ccncc3)nc3cnccc23)CCN1 [Example 298, 4-(3,3-dimethylpiperazin-1-yl)-2-(pyridin-4-yl)-1,7-naphthyridine]
97.1 nM | – | CC1(C)CN(c2cc(-c3ccncc3)nc3cnccc23)CCO1 [Example 299, 2,2-dimethyl-4-(2-(pyridin-4-yl)-1,7-naphthyridin-4-yl)morpholine]
1.2 nM | 900 nM | CC1(Nc2cc(-c3ccncc3)nc3cnccc23)CCC1 [Example 300, N-(1-methylcyclobutyl)-2-(pyridin-4-yl)-1,7-naphthyridin-4-amine]
5.2 nM | > 10000 nM | CC(C)(CN)CNc1cc(-c2ccncc2)nc2cnccc12 [Example 301, 2,2-dimethyl-N1-(2-(pyridin-4-yl)-1,7-naphthyridin-4-yl)propane-1,3-diamine]
59.5 nM | – | CN(C)C(C)(C)CNc1cc(-c2ccncc2)nc2cnccc12 [Example 302, N^2,N^2,2-trimethyl-N^1-(2-(pyridin-4-yl)-1,7-naphthyridin-4-yl)propane-1,2-diamine]
9.6 nM | > 10000 nM | CC(CN)CNc1cc(-c2ccncc2)nc2cnccc12 (stereo not shown) [Example 304, 2-methyl-N^1-(2-(pyridin-4-yl)-1,7-naphthyridin-4-yl)propane-1,3-diamine]
663 nM | – | FC(F)(F)[C@H]1CN(c2cc(-c3ccncc3)nc3cnccc23)CCN1 [Example 305, (R)-2-(pyridin-4-yl)-4-(3-(trifluoromethyl)piperazin-1-yl)-1,7-naphthyridine]
1.2 nM | 1000 nM | CN(c1cc(-c2ccncc2)nc2cnccc12)C(C)(C)C [Example 306, N-(tert-butyl)-N-methyl-2-(pyridin-4-yl)-1,7-naphthyridin-4-amine]
1.9 nM | 1300 nM | CC1(Nc2cc(-c3ccncn3)nc3cnccc23)CCC1 [Example 307, N-(1-methylcyclobutyl)-2-(pyrimidin-4-yl)-1,7-naphthyridin-4-amine]
68.7 nM | > 10000 nM | CN(C)CCC(C)(C)Nc1nc(-c2ccncn2)nc2cnccc12 [Example 308, N^1,N^1,3-trimethyl-N^3-(2-(pyrimidin-4-yl)pyrido[3,4-d]pyrimidin-4-yl)butane-1,3-diamine]
0.8 nM | 2000 nM | Cc1n[nH]cc1-c1nc(NC(C)(C)CCN(C)C)c2ccncc2n1 [Example 309, N^1,N^1,3-trimethyl-N^3-(2-(3-methyl-1H-pyrazol-4-yl)pyrido[3,4-d]pyrimidin-4-yl)butane-1,3-diamine]

IC50 [1] | IC50 [2] | Compound
164 nM | – | CC(C)(CNc1nc(-c2ccncc2)nc2cnccc12)NC(=O)OC(C)(C)C [Example 310, tert-butyl (2-methyl-1-((2-(pyridin-4-yl)pyrido[3,4-d]pyrimidin-4-yl)amino)propan-2-yl)carbamate]
1030 nM | – | CC(C)(C)OC(=O)NCCNc1nc(-c2ccncc2)nc2cnccc12 [Example 311, tert-butyl (2-((2-(pyridin-4-yl)pyrido[3,4-d]pyrimidin-4-yl)amino)ethyl)carbamate]
467 nM | – | CN(C)C(=O)C(C)(C)Nc1nc(-c2ccncc2)nc2cnccc12 [Example 314, N,N,2-trimethyl-2-((2-(pyridin-4-yl)pyrido[3,4-d]pyrimidin-4-yl)amino)propanamide]
42.5 nM | – | CC(C)(CNC(=O)OC(C)(C)C)CNc1nc(-c2ccncc2)nc2cnccc12 [Example 316, tert-butyl (2,2-dimethyl-3-((2-(pyridin-4-yl)pyrido[3,4-d]pyrimidin-4-yl)amino)propyl)carbamate]
3.8 nM | – | FC(F)(F)[C@@H]1CN(c2nc(-c3ccncc3)nc3cnccc23)CCN1 [Example 321, (S)-2-(pyridin-4-yl)-4-(3-(trifluoromethyl)piperazin-1-yl)pyrido[3,4-d]pyrimidine]
29.2 nM | – | CCOC(=O)C(C)(C)Nc1nc(-c2ccncc2)nc2cnccc12 [Example 322, ethyl 2-methyl-2-((2-(pyridin-4-yl)pyrido[3,4-d]pyrimidin-4-yl)amino)propanoate]
4.5 nM | – | CN(C)CC(C)(C)CNc1nc(-c2ccncc2)nc2cnccc12 [Example 323, N^1,N^1,2,2-tetramethyl-N^3-(2-(pyridin-4-yl)pyrido[3,4-d]pyrimidin-4-yl)propane-1,3-diamine]
10.4 nM | – | CC(C)(C)Nc1nc(-c2nonc2N)nc2cnccc12 [Example 324, 4-(4-(tert-butylamino)pyrido[3,4-d]pyrimidin-2-yl)-1,2,5-oxadiazol-3-amine]
3.7 nM | – | CN(C)C(C)(C)CNc1nc(-c2ccncc2)nc2cnccc12 [Example 325, N^2,N^2,2-trimethyl-N^1-(2-(pyridin-4-yl)pyrido[3,4-d]pyrimidin-4-yl)propane-1,2-diamine]
57.2 nM | – | CC(C)(Nc1nc(-c2ccncc2)nc2cnccc12)C(N)=O [Example 326, 2-methyl-2-((2-(pyridin-4-yl)pyrido[3,4-d]pyrimidin-4-yl)amino)propanamide]
125 nM | – | C[C@](O)(CNc1cc(-c2ccncc2)nc2cnccc12)C(F)(F)F [Example 327, (S)-1,1,1-trifluoro-2-methyl-3-((2-(pyridin-4-yl)-1,7-naphthyridin-4-yl)amino)propan-2-ol]
18.9 nM | – | CC(C)(CCNC(=O)OC(C)(C)C)Nc1nc(-c2ccncc2)nc2cnccc12 [Example 328, tert-butyl (3-methyl-3-((2-(pyridin-4-yl)pyrido[3,4-d]pyrimidin-4-yl)amino)butyl)carbamate]
3 nM | – | CN(C)CC(C)(C)CN(C)c1nc(-c2ccncc2)nc2cnccc12 [Example 329, N^1,N^1,N^3,2,2-pentamethyl-N^3-(2-(pyridin-4-yl)pyrido[3,4-d]pyrimidin-4-yl)propane-1,3-diamine]
3.1 nM | – | CCN(CC)CCC(C)(C)Nc1nc(-c2ccncc2)nc2cnccc12 [Example 330, N,N-diethyl-3-methyl-N^3-(2-(pyridin-4-yl)pyrido[3,4-d]pyrimidin-4-yl)butane-1,3-diamine]
10.5 nM | – | CN(C)CCC(C)(C)Nc1nc(-c2ccnc(F)c2)nc2cnccc12 [Example 331, N^3-(2-(2-fluoropyridin-4-yl)pyrido[3,4-d]pyrimidin-4-yl)-N^1,N^1,3-trimethylbutane-1,3-diamine]
7.6 nM | – | Cc1n[nH]c(C)c1-c1nc(NC(C)(C)CCN(C)C)c2ccncc2n1 [Example 332, N^3-(2-(3,5-dimethyl-1H-pyrazol-4-yl)pyrido[3,4-d]pyrimidin-4-yl)-N^1,N^1,3-trimethylbutane-1,3-diamine]
2.3 nM | – | CN(C)CCC(C)(C)Nc1nc(-c2c[nH]nc2C(F)(F)F)nc2cnccc12 [Example 333, N^1,N,3-trimethyl-N^3-(2-(3-(trifluoromethyl)-1H-pyrazol-4-yl)pyrido[3,4-d]pyrimidin-4-yl)butane-1,3-diamine]
6.1 nM | – | CN(C)CCC(C)(C)Nc1nc(-c2ccnc(N)c2)nc2cnccc12 [Example 334, N^3-(2-(2-aminopyridin-4-yl)pyrido[3,4-d]pyrimidin-4-yl)-N^1,N^1,3-trimethylbutane-1,3-diamine]
